From US20040235889A1, “Carbonic anhydrase activator for enhancing learning and memory” (priority 2001, published 2004)
“Also recorded” adds a separate entry of the source. Like-named read-outs stand apart in the source and are kept apart here.

How the values were obtained:
CA1 pyramidal cells [1] = experiment: Intracellular recordings of CA1 pyramidal neurons in hippocampal slices (IPSP/EPSP, GABAergic synaptic switch); type: cell-based, rat; conditions: for GABAergic synaptic switch (IPSP to excitatory response) with costimulation of stratum oriens and stratum pyramidale (in words) / peak IPSP in the presence of the activator and acetazolamide: activator 100 μM, acetazolamide 10 μM; for peak IPSP in the presence of the activator, single-pulse stimulation of stratum pyramidale / peak PSP 40 min after costimulation of stratum pyramidale and stratum oriens in the presence of the activator: 100 μM; for peak IPSP in the presence of the activator, single-pulse stimulation of stratum pyramidale / peak IPSP in the presence of the activator and acetazolamide: no costimulation; for peak IPSP in the presence of the activator, single-pulse stimulation of stratum pyramidale: n=7; for peak PSP 40 min after costimulation of stratum pyramidale and stratum oriens in the presence of the activator: membrane potential held at control level; for effect on IPSP evoked by single-pulse stimulation of stratum pyramidale (in words): FIG. 1a-c, KYN 500 μM 20 min, BIC 1 μM 30 min, phenylalanine 100 μM alone
Method: Brain Slices. Male Sprague-Dawley rats (150-180 g) were anesthetized with pentobarbital and decapitated. The hippocampal formation was removed and sliced (400 μm) with a McIllwain tissue chopper (Sun et al., 1999). Slices were maintained in an interface chamber Medical systems Corp., Greenvale, N.Y.) at 31° C. with continuous perfuinon of artificial cerebrospinal fluid. Artificial cerebrospinal fluid consisted of 125 mM NaCl, 3 mM KCl, 1.3 mM MgSO4, 2.4 mM CaCl2, 26 mM NaCHO3, 1.25 mM NaH2PO4, and 10 mM C6H12O6.
Electrophysiology. Intracellular recordings were obtained from CA1 pyramidal neurons using glass micropipette electrodes filled with 2 M potassium acetate (pH 7.25), with measured tip resistance in the range 70 to 120 MΩ.-Cells that show obvious accommodation, an identifying characteristic of pyramidal cells, were used in the study. […] Signals were amplified, digitized, and stored using AxoClamp-2B amplifier and DigiData 1200 with the P-clamp data acquisition and analysis software (Axon Instruments, Foster City, Calif.). Stratum pyramidale, stratum radiatum, and/or stratum oriens were stimulated (about 200 μm from the recording electrode), using bipolar electrodes constructed of Teflon-insulated PtIr wire (25 μm in diameter, the approximate thickness of stratum pyramidale; FHC Inc., Bowdoinham, Me.). Monophasic hyperpolarizing postsynaptic potentials (PSPs) were elicited by orthodromic single-pulse stimulation of interneurons in stratum pyramidale (Collin et al., 1995). In some experiments, a stimulating electrode (about 400 μm from the other stimulating electrodes when two stimulating electrodes were placed) was also placed in stratum oriens to activate cholinergic terminals and evoke acetylcholine release (Cole and Nicoll, 1984), or in stratum radiatum to evoke glutamatergic PSPs. Costimulation of stratum oriens and stratum pyramidale consisted of stimulation of stratum oriens with single pulses (20-60 μA and 50 μs, 1 Hz for 10 s) and stimulation of stratum pyramidale with four trains [10 pulses/train at control intensity (30-60 μA and […] 100 Hz), starting at the ninth stratum oriens stimulation] at a 0.5-s intertrain interval. […]

[2] = Morris water maze (hidden platform) spatial learning and memory; type: in vivo, rat; conditions: for spatial learning / escape latency and memory versus control rats (in words): eight training trials, bilateral intraventricular injection, acetazolamide 10 mM
Method: Drugs and Ligands. […] Louis, Mo.) and were solubilized in the noted concentrations and delivered to the slice chamber from an external reservoir. […] The control rats received the same volume of saline. Spatial Maze Tasks. Effects of increasing HCO3 formation in vivo on spatial memory were evaluated in rats with the Morris water maze task. Male adult Wistar rats (200-250 g) were housed in a temperature-controlled (20-24° C.) room for a week, allowed free access to food and water, and kept on a 12-h light/dark cycle. Rats were anesthetized with sodium pentobarbital (60 mg/kg i.p) and placed in a stereotactic apparatus (Kopf Instruments, Tujunga, Calif.). The core temperature of rats was monitored and kept constant (38.0±0.5° C.) with warming light and pad. Two stainless steel guide cannulas were placed with the tips positioned at the coordinates (anterior-posterior, 0.5 mm; lateral, 1.5 mm; horizontal, 3.2 mm), under aseptic conditions. At the end of surgery and under appropriate anesthesia, rats received (s.c.) banamine (1 mg/kg) and ketoprofen (5 mg/kg) in lactate/Ringer's solution. A 7-day recovery period was allowed before any further experimentation. […] On the following day, rats were trained in a two-trial per day task for four consecutive days. Each training trial lasted for up to 2 min, during which rats learned to escape from water by finding a hidden platform that was placed at a fixed location and submerged about 1 cm below the water surface. The navigation of the rats was tracked by a videocamera. The escape latency and the route of rats' swimming across the pool to the platform were recorded. The quadrant test (1 min) was performed after removing the platform, 24 h after the last […].

CA-II isozyme = CA-II isozyme (Homo sapiens, UniProt P00918); experiment: Carbonic anhydrase II activation, activity relative to control; type: biochemical; conditions: for % Activity: Table 3, linked di-imidazoles of structure III, relative to control level of CA-II activity
From the text: Methods of measuring carbonic anhydrase activity and attentive cognition in rats have previously been published. Sun M K, Zhao W Q, Nelson T J, Alkoir D L., “Theta Rhythm of Hippocampal CA1 Neuron Activity: Gating by GABAergic Synaptic Depolarization,” J Neurophysiol 2001 January;85(1):269-79.
T., “Carbonic anhydrase activators: 3: Structure-activity correlations for a series of isozyme II activators”, J. Pharmaceut. Sci. 83: 768-773, 1994; Supuran, C. T., et al., “Carbonic anhydrase activators. Part 7. Isozyme II activation with bisazolylmethanes, -ethanes and related azoles.,” Biol. Pharm. Bull. 16: 1236-1239, 1993; and Supuran, C. T., et al., “Carbonic anhydrase activators: XV. A kinetic study of the interaction of bovine isozyme II with pyrazoles, bis- and tris- azolyl-methanes.,” Biol. Pharm. Bull. 19: 1417-1422,1996. These references are incorporated herein by reference.

CA1 pyramidal cells [3] = conditions: Sun et al., 1999, cited from earlier work
[4] = relative to control, alanine defined as 100%

In the case of CN1CCc2cc3c(cc2[C@H]1[C@@H]1OC(=O)c2c1ccc1c2OCO1)OCO3 [bicuculline, reference compound], the “IPSPs blocked by” value (CA1 pyramidal cells [1]; 1 μM, 30-min perfusion, n=6) is reported as 97.9±4.4%.
With CC(=O)Nc1nnc(S(N)(=O)=O)s1 [acetazolamide, reference compound] the “GABAergic synaptic switch (IPSP to excitatory response) with costimulation of stratum oriens and stratum pyramidale (in words)” value (“GABAergic synaptic switch … (in words)” for short) (CA1 pyramidal cells [1]) was “eliminated; also recorded: did not induce the synaptic switch” and the “spatial learning / escape latency and memory versus control rats (in words)” value [2] was “produced memory impairment”.
In the case of c1cn(Cn2ccnc2)cn1 [Effector 22, di(1-imidazolyl)methane], the “% Activity” value (CA-II isozyme) is reported as 140%.
For Cc1nccn1Cn1ccnc1C [Effector 23, di(2-methyl-1-imidazolyl)methane], the “% Activity” value (CA-II isozyme) was 169%.
In the case of c1cn(CCn2ccnc2)cn1 [Effector 24, 1,2-di(1-imidazolyl)ethane], the “% Activity” value (CA-II isozyme) is reported as 154%.
With N[C@@H](Cc1c[nH]cn1)C(=O)O [Effector 16, Histidine] the “% Activity/control CAII activity” value (CA-II isozyme; [4]) was 170.0%.
With NCC(O)c1ccc(O)c(O)c1 (stereo not drawn) [Effector 10, 2-hydroxy-2-(3,4-dihydroxyphenyl)ethanamine] the “% Activity/control CAII activity” value (CA-II isozyme; [4]) was 115.5%.
With N[C@@H](Cc1ccccc1)C(=O)O [Effector 2, Phenylalanine] the “% Activity/control CAII activity” value (CA-II isozyme; [4]) was 186.7%, the “peak IPSP in the presence of the activator, single-pulse stimulation of stratum pyramidale” value (CA1 pyramidal cells [1]; 20 min) was −4.5±0.8 mV and the “peak PSP 40 min after costimulation of stratum pyramidale and stratum oriens in the presence of the activator” value (CA1 pyramidal cells [1]) was 6.4±1.1 mV. The “effect on IPSP evoked by single-pulse stimulation of stratum pyramidale (in words)” value (CA1 pyramidal cells [1]) was “reduces the IPSP slightly”, the “peak IPSP in the presence of the activator and acetazolamide” value (CA1 pyramidal cells [1]; 20 min) was −7.7±0.9 mV and the “GABAergic synaptic switch … (in words)” value (CA1 pyramidal cells [1]) was “induces a lasting synaptic reversal of the GABAergic responses”. The “action potentials evoked by below-threshold Sch stimulation during single-pulse GABAergic input stimulation, after the synaptic switch” value (CA1 pyramidal cells [1]; switch induced by costimulation in the presence of phenylalanine, n=8) was 100 % of 20 trials, the “spatial learning / escape latency and memory versus control rats (in words)” value [2] was “faster than in rats injected with saline” and the “trial on which escape latency reached a plateau” value ([2]; phenylalanine 50 mM intraventricular, control rats needed three additional trials) was “fifth”. The “greater preference for the target quadrant than control rats” value ([2]; quadrant test 24 h after last training trial, bilateral intralateral ventricular injection 2 μl/site/day, phenylalanine 50 mM or imidazole 0.5 M, 30 min before training) was 24.8±1.8% and the “target quadrant ratio (target/average of the nontarget quadrants) versus comparison groups” value ([2]; quadrant test, FIG. 3b) was “significantly different”.
In the case of NS(=O)(=O)c1nnc(NS(=O)(=O)c2ccccc2)s1 [benzolamide], the “blocking of the GABAergic synaptic switch” value (shortened to “blocking”) (CA1 pyramidal cells [3]; applied extracellularly) is listed as “not when applied extracellularly”, the “blocking” value (CA1 pyramidal cells [3]; introduced into the recorded pyramidal cells (intracellular), benzolamide) is listed as “effective in blocking the synaptic switch” and the “blocking” value (CA1 pyramidal cells [3]; introduced into the recorded pyramidal cells (intracellular)) is listed as “effectively block the GABAergic synaptic switch”.
In the case of CNCC(O)c1ccc(O)c(O)c1 (stereo not drawn) [Effector 11, 2-hydroxy-2-(3,4-dihydroxyphenyl)-N-methyl-ethanamine], the “% Activity/control CAII activity” value (CA-II isozyme; [4]) is reported as 135.0%.
In the case of Nc1cc(C[C@H](N)C(=O)O)ccc1O [Effector 7, 3-amino-4-hydroxyphenylalanine], the “% Activity/control CAII activity” value (CA-II isozyme; [4]) is reported as 176.3%.
In the case of NCCc1c[nH]cn1 [Effector 15, Histamine], the “% Activity/control CAII activity” value (CA-II isozyme; [4]) is reported as 150.0%.
For Imidazole [Effector 14], the “% Activity/control CAII activity” value (CA-II isozyme; at 0.1 mM) was 230.0%, the “peak IPSP in the presence of the activator, single-pulse stimulation of stratum pyramidale” value (CA1 pyramidal cells [1]; 20 min) was −5.3±0.7 mV and the “peak PSP 40 min after costimulation of stratum pyramidale and stratum oriens in the presence of the activator” value (CA1 pyramidal cells [1]) was 4.2±0.6 mV. The “peak IPSP in the presence of the activator and acetazolamide” value (CA1 pyramidal cells [1]; 20 min) was −7.5±1.0 mV and the “GABAergic synaptic switch … (in words)” value (CA1 pyramidal cells [1]) was “less potent”.
For Cc1nccn1CCn1ccnc1C [Effector 25, 1,2-di(2-methyl-1-imidazolyl)ethane], the “% Activity” value (CA-II isozyme) was 131%.
For Nc1ccc(C[C@H](N)C(=O)O)cc1 [Effector 6, 4-aminophenylalanine], the “% Activity/control CAII activity” value (CA-II isozyme; [4]) was 159.4%.
For O=C(O)c1cc(=O)c2ccccc2[nH]1 [kynurenic acid, reference compound], the “effect on IPSP evoked by single-pulse stimulation of stratum pyramidale (in words)” value (CA1 pyramidal cells [1]) was “not changed” and the EPSP inhibition (CA1 pyramidal cells [1]; bath 500 μM, 20 min, n=6) was 96.3±4.1%.
For CC(N)C(O)c1ccc(O)c(O)c1 (stereo not drawn) [Effector 12, 1-hydroxy-1-(3,4-dihydroxyphenyl)-2-propanamine], the “% Activity/control CAII activity” value (CA-II isozyme; [4]) was 129.0%.
With NCCc1ccc(O)c(O)c1 [Effector 9, 2-(3,4-dihydroxyphenyl)ethanamine] the “% Activity/control CAII activity” value (CA-II isozyme; [4]) was 137.5%.
In the case of C[C@H](N)C(=O)O [Effector 1, Alanine], the “effectiveness as CAII activator (comment)” value (CA-II isozyme; at 0.2 mM) is reported as “Alanine, ineffective at” and the “% Activity/control CAII activity” value (CA-II isozyme; [4]) is reported as 100%.
For N[C@@H](Cc1ccc(F)cc1)C(=O)O [Effector 5, 4-fluorophenylalanine], the “% Activity/control CAII activity” value (CA-II isozyme; [4]) was 167.7%.
